Assay results reported in US20260345555A1, “Compositions and Methods for Protecting Salivary Glands from Off-Target Radiation Damage” (University of Rochester, priority 2022, published 2026).
Counter-ions that a name gives are not always drawn.

test system: Reduced glutathione in salivary gland cell clusters (SGm); experiment: Glutathione assay in salivary gland tissue chip, 4 days post-radiation (15 Gy); also first screen of Selleck library at 100 μM; type: cell-based, mouse; conditions: not given
From the text: A salivary gland tissue chip was leveraged for high-content drug screening to identify novel radioprotective compounds (Song Y et al., Commun Biol., 2021, 4). The chip platform consists of an array of near-spherical microbubble (MB) cavities formed in poly(dimethylsiloxane) (PDMS). Each chip, containing ~50 MBs, affixed within wells of a 96-well plate (FIG. 1C). Primary salivary gland cell clusters (FIG. 1A), suspended in a poly(ethylene glycol) (PEG) hydrogel precursor and MMP-degradable peptide crosslinker solution together with the photoinitiator LAP, were applied to the chip allowing the clusters to deposit into the MBs (FIG. 1D). In situ polymerization of the hydrogel was achieved using long-wave, low intensity UV light. Over time, the cell clusters aggregate and proliferate to form SGm (FIG. 1C).
The glutathione assay was used to measure glutathione levels at various time points post-radiation to determine the optimal time point for detecting differences between 0 Gy and 15 Gy. Based on the data, the greatest signal separation was measured at 4 days post-irradiation (FIG. 9). This timepoint is similar to previous reports on decreases in glutathione post-radiation and was used for all experiments moving forward (Meeks L et al., Physiological Genomics, 2021, 53: 85-98).
The dose response to WR-1065 was examined to determine effective concentrations of WR-1065 to prevent the reduction of glutathione levels post-radiation. A SGm tissue chip was cultured for 4 days to allow spheres to form. The chip was then treated with WR-1065 30 minutes before and during radiation, followed by drug wash out with media 30 minutes post-radiation (FIG. 2A). This dosing scheme is consistent with the use of Amifostine clinically and with previous work. The glutathione assay was performed at 4 days post-radiation (FIG. 2A). […] Moreover, it is clinically relevant as 15-30 minutes before radiation, patients are administered Amifostine intravenously at 200 mg/m (Escobar A et al., IntechOpen, 2019, pp. 15-37; Eisbruch A, J Clin Oncol, 2011, 29: 119-121; Bardet, E. et al. Semin Oncol, 2002, 29, 57-60). Assuming an average adult body surface area of 17,000 cm^2 and a blood volume of 1.35 gallons (5.1 liters), Amifostine is administered at 300 μM (Mosteller, R. D. N Engl J Med 317, 1098 (1987)).
The glutathione and senescence assays were used to screen a library of FDA-approved drugs (Selleck Chemicals) at 100 μM. Drugs were first screened using the glutathione assay according to the timeline depicted in FIG. 2A. Any compound resulting in statistically similar glutathione levels compared to 0 Gy control was considered a hit (FIG. 4, grey circles). Hits with the glutathione assay were then tested with the senescence assay and considered a “double hit” if senescence levels were statistically similar to levels at 0 Gy (FIG. 4, black circles). […] While this hit rate is higher than many other drug screening reports (0.1-0.3%), this may be due to the statistical rigor afforded by the tissue chip format (Blanchard, C et al., Antimicrob Agents Chemother 2016, 60, 862-872; Colquhoun, J. M et al., Antibiotics (Basel) 2019, 8, 48). Additionally, phenotypic screens generally have higher hit rates than target-based screens (>1%) (Moffat, J. G et al., Nature Reviews Drug Discovery 2017, 16, 531-543; Rottman, M et al., Science 2010, 329, 1175-1180).
Mice were euthanized and the submandibular glands (SMG) were removed and chopped with a razor blade for 5 min. The tissue was then incubated in Hank's buffered salt solution (HBSS) containing 15 mM HEPES, 50 U/mL collagenase type II (Thermo Fischer 17101015), and 100 U/mL hyaluronidase (Sigma Aldrich H3506) at 37 °C for 30 min. Cells were centrifuged, then resuspended in HBSS with 15 mM HEPES and passed through 100 μm and 20 μm mesh filters to isolate clusters between 20-100 μm. The digestion protocol produces cell cluster sizes evenly distributed between 20 to 100 μm (Song, Y et al., Advanced Healthcare Materials). […]

Question: For O=P1(N(CCCl)CCCl)NCCCO1 (centres unmarked) [Clafen (Cyclophosphamide)], which “Glutathione: Normalized mean intensity” value is on record?
Answer: 0.5778

Question: For CC(=O)Oc1ccccc1C(=O)Nc1ncc([N+](=O)[O-])s1 [Nitazoxanide (Alinia, Annita)], which “Glutathione: Normalized mean intensity” value is on record?
Answer: 0.5996

same assay, conditions: first screen of Selleck library at 100 μM, 15 Gy, 4 days post-radiation

Question: How did the “Glutathione normalized mean intensity” value turn out when CC(=O)[C@H]1CC[C@H]2[C@@H]3CC=C4C[C@@H](O)CC[C@]4(C)[C@H]3CC[C@]12C [Pregnenolone] was run?
Answer: 0.6057

Question: Which “Glutathione normalized mean intensity” value does the source give for CCOC(=O)[C@H](CCc1ccccc1)N[C@@H](C)C(=O)N1CCC[C@H]1C(=O)O [Enalapril maleate (Vasotec)] here?
Answer: 0.8307

Question: For O=C1c2ccccc2C(=O)C1c1ccccc1 [Phenindione (Rectadione)], which “Glutathione normalized mean intensity” value is on record?
Answer: 0.6802

Question: How did the “Glutathione normalized mean intensity” value turn out when Cc1nnc(NS(=O)(=O)c2ccc(N)cc2)s1 [Sulfamethizole (Proklar)] was run?
Answer: 0.4719

Question: CC(C)C(=O)Nc1ccc([N+](=O)[O-])c(C(F)(F)F)c1 [Flutamide (Eulexin)] was tested. Which “Glutathione normalized mean intensity” value did it give?
Answer: 0.6406

Question: How did the “Glutathione normalized mean intensity” value turn out when NC(=O)c1cccnc1 [Nicotinamide (Niacinamide)] was run?
Answer: 0.6872

Question: For NNC(=O)c1ccncc1 [Isoniazid (Tubizid)], which “Glutathione normalized mean intensity” value is on record?
Answer: 0.3683

Question: NC(=O)c1ncn([C@@H]2O[C@H](CO)[C@@H](O)[C@H]2O)c1N [Acadesine] was tested. Which “Glutathione normalized mean intensity” value did it give?
Answer: 0.3637

Question: Which “Glutathione normalized mean intensity” value does the source give for COCCc1ccc(OCC(O)CNC(C)C)cc1 (centres unmarked) [Metoprolol tartrate] here?
Answer: 0.829

Question: Cc1ncc([N+](=O)[O-])n1CCO [Metronidazole (Flagyl)] was tested. Which “Glutathione normalized mean intensity” value did it give?
Answer: 0.5627

Question: How did the “Glutathione normalized mean intensity” value turn out when CCC1(c2ccccc2)C(=O)NCNC1=O [Primidone (Mysoline)] was run?
Answer: 0.8725

Question: With Cc1cccc(C)c1NC(=O)CN1CCCC1=O [Nefiracetam (Translon)] as the compound, how does the “Glutathione normalized mean intensity” value read?
Answer: 0.6824

Question: COc1cc(NS(=O)(=O)c2ccc(N)cc2)nc(OC)n1 [Sulphadimethoxine] was tested. Which “Glutathione normalized mean intensity” value did it give?
Answer: 0.8846

Question: CNC(=C[N+](=O)[O-])NCCSCc1ccc(CN(C)C)o1 [Ranitidine (Zantac)] was tested. Which “Glutathione normalized mean intensity” value did it give?
Answer: 0.4295

Question: O=C(O)Cc1ccccc1Nc1c(Cl)cccc1Cl [Diclofenac] was tested. Which “Glutathione normalized mean intensity” value did it give?
Answer: 0.334

Question: CC1(C)[C@H](C(=O)O)N2C(=O)C[C@H]2S1(=O)=O [Sulbactam] was tested. Which “Glutathione normalized mean intensity” value did it give?
Answer: 0.6491

Question: How did the “Glutathione normalized mean intensity” value turn out when Cc1c(Cl)cccc1Nc1ccccc1C(=O)O [Tolfenamic acid] was run?
Answer: 0.8008

Question: With CCc1cc(C(N)=S)ccn1 [Ethionamide] as the compound, how does the “Glutathione normalized mean intensity” value read?
Answer: 0.7451

Question: OCCN(CCO)c1nc(N2CCCCC2)c2nc(N(CCO)CCO)nc(N3CCCCC3)c2n1 [Dipyridamole (Persantine)] was tested. Which “Glutathione normalized mean intensity” value did it give?
Answer: 0.5847

Question: Which “Glutathione normalized mean intensity” value does the source give for c1ccc([C@H]2CN3CCSC3=N2)cc1 [Levamisole Hydrochloride (Ergamisol)] here?
Answer: 0.8181

Question: How did the “Glutathione normalized mean intensity” value turn out when O=c1[nH]c(=O)n([C@H]2C[C@H](O)[C@@H](CO)O2)cc1C(F)(F)F [Trifluridine (Viroptic)] was run?
Answer: 0.7468

Question: Bacitracin zinc was tested. Which “Glutathione normalized mean intensity” value did it give?
Answer: 0.6175

Question: With CC(=O)OCC(=O)NCCCOc1cccc(CN2CCCCC2)c1 [Roxatidine acetate HCl] as the compound, how does the “Glutathione normalized mean intensity” value read?
Answer: 0.4245

Question: How did the “Glutathione normalized mean intensity” value turn out when CCCc1cc(C(N)=S)ccn1 [Protionamide (Prothionamide)] was run?
Answer: 0.6328

Question: For CNC(=C[N+](=O)[O-])NCCSCc1csc(CN(C)C)n1 [Nizatidine], which “Glutathione normalized mean intensity” value is on record?
Answer: 0.5754

Question: How did the “Glutathione normalized mean intensity” value turn out when Cc1cc(NS(=O)(=O)c2ccc(N)cc2)no1 [Sulfamethoxazole] was run?
Answer: 0.8442

Question: For COc1c2occc2cc2ccc(=O)oc12 [Methoxsalen (Oxsoralen)], which “Glutathione normalized mean intensity” value is on record?
Answer: 0.6397

Question: C[C@@H]1[C@H](O)[C@@H](C)/C=C/C=C/CC/C=C/C=C/C=C/C=C/C(O[C@H]2O[C@H](C)[C@@H](O)[C@H](N)[C@@H]2O)CC2O[C@](O)(CC(O)C(O)CCC(O)CC(O)CC(O)CC(=O)O[C@H]1C)CC(O)C2C(=O)O (some centres unmarked) [Nystatin (Mycostatin)] was tested. Which “Glutathione normalized mean intensity” value did it give?
Answer: 0.3498

Question: O=C([O-])c1cc(=O)c2c(OCC(O)COc3cccc4oc(C(=O)[O-])cc(=O)c34)cccc2o1.[Na+].[Na+] [Disodium Cromoglycate] was tested. Which “Glutathione normalized mean intensity” value did it give?
Answer: 0.6798

Question: For Oc1c(Cl)cc(Cl)c2cccnc12 [Chloroxine], which “Glutathione normalized mean intensity” value is on record?
Answer: 0.1604

Question: With COc1ccc([C@@H]2Sc3ccccc3N(CCN(C)C)C(=O)[C@@H]2OC(C)=O)cc1 [Diltiazem HCL (Tiazac)] as the compound, how does the “Glutathione normalized mean intensity” value read?
Answer: 0.7425

Question: CC(C)OC(=O)C(C)(C)Oc1ccc(C(=O)c2ccc(Cl)cc2)cc1 [Fenofibrate (Tricor, Trilipix)] was tested. Which “Glutathione normalized mean intensity” value did it give?
Answer: 0.5348

Question: O=C(CCCN1CCC(O)(c2ccc(Cl)cc2)CC1)c1ccc(F)cc1 [Haloperidol (Haldol)] was tested. Which “Glutathione normalized mean intensity” value did it give?
Answer: 0.6675

Question: With CC(C)(S)[C@@H](N)C(=O)O [Penicillamine (Cuprimine)] as the compound, how does the “Glutathione normalized mean intensity” value read?
Answer: 0.7681

Question: COc1ccccc1OCC(O)CN1CCN(CC(=O)Nc2c(C)cccc2C)CC1 (centres unmarked) [Ranolazine (Ranexa)] was tested. Which “Glutathione normalized mean intensity” value did it give?
Answer: 0.5015

Question: With CN(C)CCOC(c1ccccc1)c1ccccc1 [Diphenhydramine HCl (Benadryl)] as the compound, how does the “Glutathione normalized mean intensity” value read?
Answer: 0.6149

Question: CCCOc1ccc(C(=O)OCCN(CC)CC)cc1N [Proparacaine HCl] was tested. Which “Glutathione normalized mean intensity” value did it give?
Answer: 0.7045

Question: Which “Glutathione normalized mean intensity” value does the source give for O=C(O)CSCC(=O)NC1CCSC1=O (centres unmarked) [Erdosteine] here?
Answer: 0.5728

Question: How did the “Glutathione normalized mean intensity” value turn out when C[C@H]1COc2c(N3CCN(C)CC3)c(F)cc3c(=O)c(C(=O)O)cn1c23 [Levofloxacin (Levaquin)] was run?
Answer: 0.6541

Question: CCCCC(=O)N(Cc1ccc(-c2ccccc2-c2nn[nH]n2)cc1)[C@H](C(=O)O)C(C)C [Valsartan (Diovan)] was tested. Which “Glutathione normalized mean intensity” value did it give?
Answer: 0.6351

Question: How did the “Glutathione normalized mean intensity” value turn out when CC(N)C12CC3CC(CC(C3)C1)C2 (centres unmarked) [Rimantadine (Flumadine)] was run?
Answer: 0.3987

Question: With Nc1ncn([C@@H]2O[C@H](CO)[C@@H](O)[C@H]2O)c(=O)n1 [Azacitidine (Vidaza)] as the compound, how does the “Glutathione normalized mean intensity” value read?
Answer: 0.5322

Question: Clc1ccc(CCC(Cn2ccnc2)Sc2c(Cl)cccc2Cl)cc1 (centres unmarked) [Butoconazole nitrate] was tested. Which “Glutathione normalized mean intensity” value did it give?
Answer: 0.6197

Question: Which “Glutathione normalized mean intensity” value does the source give for CN(C)C(=N)N=C(N)N [Metformin hydrochloride (Glucophage)] here?
Answer: 0.6991

Question: For CC(C)[C@H](N)C(=O)OCCOCn1cnc2c(=O)[nH]c(N)nc21 [Valaciclovir HCl], which “Glutathione normalized mean intensity” value is on record?
Answer: 0.6362

Question: Which “Glutathione normalized mean intensity” value does the source give for COc1ccc(C(=O)CC(=O)c2ccc(C(C)(C)C)cc2)cc1 [Avobenzone (Parsol 1789)] here?
Answer: 0.5309

Question: With COc1cc([C@@H]2c3cc4c(cc3[C@@H](O[C@@H]3O[C@@H]5CO[C@@H](c6cccs6)O[C@H]5[C@H](O)[C@H]3O)[C@H]3COC(=O)[C@H]23)OCO4)cc(OC)c1O [Teniposide (Vumon)] as the compound, how does the “Glutathione normalized mean intensity” value read?
Answer: 0.4095

Question: CCCOc1ccc2nc(NC(=O)OC)[nH]c2c1 [Oxibendazole] was tested. Which “Glutathione normalized mean intensity” value did it give?
Answer: 0.747

Question: CC(C(=O)O)c1ccc2c(c1)Cc1cccnc1O2 (centres unmarked) [Pranoprofen] was tested. Which “Glutathione normalized mean intensity” value did it give?
Answer: 0.7582

Question: With NC(=O)NO [Hydroxyurea (Cytodrox)] as the compound, how does the “Glutathione normalized mean intensity” value read?
Answer: 0.4236

Question: For CC[C@H]1OC(=O)[C@H](C)[C@@H](O[C@H]2C[C@@](C)(OC)[C@@H](O)[C@H](C)O2)[C@H](C)[C@@H](O[C@@H]2O[C@H](C)C[C@H](N(C)C)[C@H]2O)[C@](C)(O)C[C@@H](C)CN(C)[C@H](C)[C@@H](O)[C@]1(C)O [Azithromycin (Zithromax)], which “Glutathione normalized mean intensity” value is on record?
Answer: 0.8765
